# Assay results reported in US20240123022A1, “A STABLE ANTI-ANGIOGENIC AND ANTI-INFLAMMATORY PHARMACEUTICAL FORMULATION AND PHARMACEUTICAL COMBINATION FOR TREATMENT AND PREVENTION OF PSORIASIS” (priority 2021, published 2024).
# Experiments:
# Caspase 3 = test: Caspase-3 activation assay in HaCaT cells; type: cell-based, human; conditions: 100 to 5000 μg/mL, 24 h and 48 h, vs untreated cells
# From the text: The study aimed to determine action of IS217 on the death mediator Caspase 3 which acts as dominant regulator during cell death induction. HaCaT cells were used as test system and in house validation assay was done by using Anthralin dissolved in DMSO (positive control).
# [1] = Plasma stability in human plasma; type: in vitro ADME
# Experimental: Following centrifugation, the supernatant was analyzed on HPLC-UV.
# Topoisomerase II enzyme = molecular target: T1, Topoisomerase II enzyme (Homo sapiens, UniProt P11388); test: Topoisomerase II inhibition (kinetoplast DNA decatenation, agarose gel); type: biochemical
# T1 construct: purchased TopoGen TG2000H-1
# T1 sequence (P11388 whole entry): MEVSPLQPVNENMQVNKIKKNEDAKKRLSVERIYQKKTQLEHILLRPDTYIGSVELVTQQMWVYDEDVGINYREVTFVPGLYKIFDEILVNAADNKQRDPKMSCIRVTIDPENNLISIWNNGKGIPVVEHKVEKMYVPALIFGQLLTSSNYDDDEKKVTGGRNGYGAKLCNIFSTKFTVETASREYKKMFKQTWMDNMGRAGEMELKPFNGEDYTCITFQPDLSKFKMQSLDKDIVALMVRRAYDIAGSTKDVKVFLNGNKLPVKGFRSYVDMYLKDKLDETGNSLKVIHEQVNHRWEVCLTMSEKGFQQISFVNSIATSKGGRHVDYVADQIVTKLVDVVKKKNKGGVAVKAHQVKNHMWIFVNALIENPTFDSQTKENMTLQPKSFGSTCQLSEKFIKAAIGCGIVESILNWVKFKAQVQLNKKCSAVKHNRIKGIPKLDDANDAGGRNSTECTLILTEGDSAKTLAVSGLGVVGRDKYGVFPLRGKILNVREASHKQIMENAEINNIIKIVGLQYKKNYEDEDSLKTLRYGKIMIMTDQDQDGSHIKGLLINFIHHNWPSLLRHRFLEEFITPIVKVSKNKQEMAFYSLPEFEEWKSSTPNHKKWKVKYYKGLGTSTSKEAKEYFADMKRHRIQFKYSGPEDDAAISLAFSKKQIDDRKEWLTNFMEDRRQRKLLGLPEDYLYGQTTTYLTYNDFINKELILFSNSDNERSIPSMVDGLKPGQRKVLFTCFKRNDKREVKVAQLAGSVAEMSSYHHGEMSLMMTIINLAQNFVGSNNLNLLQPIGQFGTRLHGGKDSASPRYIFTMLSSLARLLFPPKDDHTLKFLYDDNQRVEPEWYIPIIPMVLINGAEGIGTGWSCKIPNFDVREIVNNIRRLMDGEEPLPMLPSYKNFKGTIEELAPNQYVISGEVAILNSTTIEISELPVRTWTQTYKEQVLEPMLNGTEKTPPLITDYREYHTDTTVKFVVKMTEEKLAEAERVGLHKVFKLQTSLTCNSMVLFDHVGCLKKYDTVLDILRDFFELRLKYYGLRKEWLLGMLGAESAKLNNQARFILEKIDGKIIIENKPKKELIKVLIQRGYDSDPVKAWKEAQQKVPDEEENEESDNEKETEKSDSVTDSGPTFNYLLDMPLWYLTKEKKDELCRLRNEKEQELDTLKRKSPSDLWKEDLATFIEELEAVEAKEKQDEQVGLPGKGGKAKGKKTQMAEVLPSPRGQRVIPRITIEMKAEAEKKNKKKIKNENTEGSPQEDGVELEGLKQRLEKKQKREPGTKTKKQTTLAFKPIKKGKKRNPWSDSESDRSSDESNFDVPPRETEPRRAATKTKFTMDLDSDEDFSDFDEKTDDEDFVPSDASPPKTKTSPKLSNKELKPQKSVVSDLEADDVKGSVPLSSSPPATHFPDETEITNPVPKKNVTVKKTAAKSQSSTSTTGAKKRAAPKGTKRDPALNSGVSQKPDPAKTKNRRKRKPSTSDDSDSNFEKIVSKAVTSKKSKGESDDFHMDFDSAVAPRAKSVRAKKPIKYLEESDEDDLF
# Experimental: Topoisomerase II inhibitory potential of IS217 was evaluated using widely reported kinetoplast DNA as test system in presence of Topoisomerase II enzyme. IS217 was tested at concentrations ranging from 0.01 μg/ml to 1 mg/ml. Doxorubucin hydrochloride and nalidixic acid were used as positive controls at the concentration of 10 μM and 1 mg/ml, respectively.
# Inhibition of release of decatenated KDNA products was used as a specific marker to assess the inhibitory activity of IS217 on topoisomerase II enzyme, which was determined by using 1% agarose gel electrophoresis.
# HUVEC cells = type: cell-based, human; conditions: 100-1000 μg/ml
# Experimental: The study was performed to determine anti-angiogenic effect of IS217 in HUVEC cell line by assessing anti-proliferative effects of test item. Here XTT assay was used to determine the cell viability in test cells. HUVEC cells were treated with the test item IS217 (100-1000 μg/ml) and bevacizumab (1 mg/ml) concentrations was used as positive controls.
# [2] = Stability of IS217 API, accelerated condition 5 ± 3° C.; type: physicochemical
# Experimental: The purpose of stability testing is to provide evidence on how the quality of a drug substance or drug product varies with time under the influence of a variety of environmental factors such as temperature, humidity, etc. and to establish a re-test period for the drug substance or a shelf life for the drug product and recommended storage conditions. The study was conducted according to the WHO and Schedule-Y guidelines.
# The drug substance is a lyophilized white fluffy powder, and it was filled at sterile condition in glass injection vial which has airlock-rubber capping. This container closure system is the same as or simulates the packaging proposed for storage and distribution.
# This study has included testing of those attributes of the drug substance that are susceptible to change during storage and are likely to influence quality, safety and/or efficacy. The testing was covered, as appropriate, the physical and chemical attributes.
# The following test attributes have been selected according to above said guidelines. • Appearance; odour; colour; colour of solution (when the drug substance is soluble in solvent); clarity of solution; degradation and assessment of container closure system
# The studies were conducted under appropriate storage conditions (with appropriate tolerances) that test drug substance thermal stability and its sensitivity to moisture. The drug substance is intended to store for 24 months. Accordingly, long term stability studies were done for 24 months. The details of the storage conditions have been furnished hereunder.
# Name of the product: IS217; Batch size: 200 m·mol; Storage conditions: 5±3° C.
# CYP2C9 = molecular target: T2, CYP2C9 (Homo sapiens, UniProt P11712); test: in vitro; type: in vitro ADME
# T2 construct: purchased
# T2 sequence (P11712 whole entry): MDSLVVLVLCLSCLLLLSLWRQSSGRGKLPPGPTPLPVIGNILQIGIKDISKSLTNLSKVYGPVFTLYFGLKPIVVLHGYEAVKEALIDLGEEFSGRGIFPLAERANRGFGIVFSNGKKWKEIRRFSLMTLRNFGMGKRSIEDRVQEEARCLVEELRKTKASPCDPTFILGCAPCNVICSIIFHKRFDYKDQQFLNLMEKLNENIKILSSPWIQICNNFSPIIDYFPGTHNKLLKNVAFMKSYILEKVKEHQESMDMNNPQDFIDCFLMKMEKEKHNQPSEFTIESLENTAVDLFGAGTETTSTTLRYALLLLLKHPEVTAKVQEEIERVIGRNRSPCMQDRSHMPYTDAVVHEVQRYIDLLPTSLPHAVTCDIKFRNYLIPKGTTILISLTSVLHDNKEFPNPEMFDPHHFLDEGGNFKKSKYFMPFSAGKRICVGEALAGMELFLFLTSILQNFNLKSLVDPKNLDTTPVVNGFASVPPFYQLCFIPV
# Experimental: (§1) The study design determined inhibition potential of test item (IS217) for CYP3A4, CYP1A2, CYP2C9, CYP2D6 and CYP2C19 using high throughput inhibitor screening kit. The experiment was performed with concentrations range of 10 μg/mL to 0.005 μg/mL of test compound IS217. Positive controls taken were specific to individual kit, which were taken as follows:
# (§2) At the end of incubation period, metabolism of fluorescent substrates to their metabolites was read using fluorescent multiwall spectrophotometer (Biotek reader). Very less (<20% at 10 μg/mL) to no inhibition potential was observed towards enzymes CYP3A4, CYP2C9, CYP2D6, CYP1A2 and CYP2C19.
# CYP2C19 = molecular target: T3, CYP2C19 (Homo sapiens, UniProt P33261); test: in vitro; type: in vitro ADME
# T3 construct: purchased
# T3 sequence (P33261 whole entry): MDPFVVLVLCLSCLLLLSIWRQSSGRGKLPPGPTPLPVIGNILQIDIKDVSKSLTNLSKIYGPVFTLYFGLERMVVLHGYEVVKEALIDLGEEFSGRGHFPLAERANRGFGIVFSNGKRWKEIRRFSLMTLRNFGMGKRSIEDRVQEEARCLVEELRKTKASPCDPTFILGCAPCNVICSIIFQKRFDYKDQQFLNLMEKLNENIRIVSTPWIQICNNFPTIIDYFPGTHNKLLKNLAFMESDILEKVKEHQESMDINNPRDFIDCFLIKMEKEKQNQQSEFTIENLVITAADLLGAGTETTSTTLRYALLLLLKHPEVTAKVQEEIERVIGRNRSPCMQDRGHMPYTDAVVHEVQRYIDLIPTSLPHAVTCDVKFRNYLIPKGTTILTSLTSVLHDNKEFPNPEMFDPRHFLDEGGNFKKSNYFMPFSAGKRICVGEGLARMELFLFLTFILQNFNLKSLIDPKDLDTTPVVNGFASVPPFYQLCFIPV
# Experimental: as §1, §2
# CYP1A2 = molecular target: T4, CYP1A2 (Homo sapiens, UniProt P05177); test: in vitro; type: in vitro ADME
# T4 construct: purchased
# T4 sequence (P05177 whole entry): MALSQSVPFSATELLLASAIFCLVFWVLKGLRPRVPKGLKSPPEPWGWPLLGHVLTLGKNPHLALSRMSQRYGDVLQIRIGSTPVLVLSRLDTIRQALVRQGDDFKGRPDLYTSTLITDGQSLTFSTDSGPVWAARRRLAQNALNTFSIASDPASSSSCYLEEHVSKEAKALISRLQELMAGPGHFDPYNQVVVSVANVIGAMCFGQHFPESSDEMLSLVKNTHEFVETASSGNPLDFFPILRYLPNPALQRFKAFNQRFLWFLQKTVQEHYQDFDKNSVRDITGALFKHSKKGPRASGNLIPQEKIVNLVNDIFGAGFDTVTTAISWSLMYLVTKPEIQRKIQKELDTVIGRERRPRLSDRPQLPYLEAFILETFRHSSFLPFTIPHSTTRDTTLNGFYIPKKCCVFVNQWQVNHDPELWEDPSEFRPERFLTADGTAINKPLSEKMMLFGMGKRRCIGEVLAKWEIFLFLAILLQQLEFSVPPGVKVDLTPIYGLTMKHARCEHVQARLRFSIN
# Experimental: as §1, §2
# CYP3A4 = molecular target: T5, CYP3A4 (Homo sapiens, UniProt P08684); test: in vitro; type: in vitro ADME
# T5 construct: purchased
# T5 sequence (P08684 whole entry): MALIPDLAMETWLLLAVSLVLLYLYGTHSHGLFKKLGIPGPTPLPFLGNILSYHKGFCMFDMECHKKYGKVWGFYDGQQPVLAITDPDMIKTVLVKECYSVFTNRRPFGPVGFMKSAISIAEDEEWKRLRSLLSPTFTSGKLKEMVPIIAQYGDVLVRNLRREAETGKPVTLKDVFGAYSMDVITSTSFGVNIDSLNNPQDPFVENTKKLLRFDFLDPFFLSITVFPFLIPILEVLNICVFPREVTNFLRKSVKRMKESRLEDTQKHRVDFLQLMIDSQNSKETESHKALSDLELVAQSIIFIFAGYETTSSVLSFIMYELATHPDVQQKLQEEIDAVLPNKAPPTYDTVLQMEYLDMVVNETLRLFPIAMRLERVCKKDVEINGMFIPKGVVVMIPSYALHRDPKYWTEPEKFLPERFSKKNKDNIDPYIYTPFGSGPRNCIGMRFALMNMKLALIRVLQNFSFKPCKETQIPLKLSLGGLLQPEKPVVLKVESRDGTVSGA
# Experimental: as §1, §2
# CYP2D6 = molecular target: T6, CYP2D6 (Homo sapiens, UniProt P10635); test: in vitro; type: in vitro ADME
# T6 construct: purchased
# T6 sequence (P10635 whole entry): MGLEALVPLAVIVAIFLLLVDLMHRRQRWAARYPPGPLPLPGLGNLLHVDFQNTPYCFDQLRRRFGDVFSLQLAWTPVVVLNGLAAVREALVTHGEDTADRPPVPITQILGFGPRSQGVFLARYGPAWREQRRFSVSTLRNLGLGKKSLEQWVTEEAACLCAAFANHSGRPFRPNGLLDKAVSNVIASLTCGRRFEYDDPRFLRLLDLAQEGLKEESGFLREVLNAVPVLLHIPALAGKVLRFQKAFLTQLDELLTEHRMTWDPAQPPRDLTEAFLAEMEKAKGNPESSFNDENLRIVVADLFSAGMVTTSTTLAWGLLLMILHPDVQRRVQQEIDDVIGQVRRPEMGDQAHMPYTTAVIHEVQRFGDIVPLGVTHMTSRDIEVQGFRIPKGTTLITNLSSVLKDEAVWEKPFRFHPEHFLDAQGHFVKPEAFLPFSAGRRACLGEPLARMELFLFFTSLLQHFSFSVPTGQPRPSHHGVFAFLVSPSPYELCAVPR
# Experimental: as §1, §2
substance,measurement,setting,value
"H-FAKKFAKKFK-OH [IS217, H-Phe-Ala-Lys-Lys-Phe-Ala-Lys-Lys-Phe-Lys-OH]",activation of Caspase 3,Caspase 3,did not lead to activation
same,"remaining at 0.25 h, 100 μg/ml","[1]; human plasma, 15 minutes, read-out: IS217 remaining",90.7%
same,"remaining at 0.5 h, 100 μg/ml","[1]; human plasma, 30 minutes, read-out: IS217 remaining",105%
same,"remaining at 0.75 h, 100 μg/ml","[1]; human plasma, 45 minutes, read-out: IS217 remaining",85.2%
same,"remaining at 1 h, 100 μg/ml","[1]; human plasma, 60 minutes, read-out: IS217 remaining",91.1%
same,plasma stability,"[1]; human, plasma",stable in human plasma
same,half-life at 100 μg/ml,"[1]; human, plasma, from 60 minutes incubation, read-out: calculated half-life in human plasma",6.92 h
same,topoisomerase II enzyme inhibition,Topoisomerase II enzyme; 0.01 μg/ml to 10 μg/ml,no topoisomerase II enzyme inhibition
same,topoisomerase II enzyme inhibition,Topoisomerase II enzyme; 100 μg/ml,some extent of inhibition
same,topoisomerase II enzyme inhibition,"Topoisomerase II enzyme; 1 mg/ml, highest tested concentration",better inhibition
same,percentage inhibition of FBS induced proliferation of HUVEC cells,HUVEC cells,effective upto 1000 μg/ml only
same,API calculated on the anhydrous basis (OAB),"[2]; 5 ± 3° C., 1 M",99.36%
same,"Related substances (By HPLC), Any Max. Impurity","[2]; 5 ± 3° C., 1 M",0.52%
same,"Related substances (By HPLC), Total Impurity","[2]; 5 ± 3° C., 1 M",0.63%
same,Solubility (Soluble in water),"[2]; 5 ± 3° C., 1 M",Complies
same,Water Content (By Karl Fischer-Titrator),"[2]; 5 ± 3° C., 1 M",4.61% w/w
same,"Appearance, change","[2]; 5 ± 3° C., 1st month",No change
same,"Assessment of container closure system, change","[2]; 5 ± 3° C., 1st month",No change
same,"Clarity of solution, change","[2]; 5 ± 3° C., 1st month",No change
same,"Color of Solution, change","[2]; 5 ± 3° C., 1st month",No change
same,"Color, change","[2]; 5 ± 3° C., 1st month",No change
same,"Odor, change","[2]; 5 ± 3° C., 1st month",No change
same,API calculated on the anhydrous basis (OAB),"[2]; 5 ± 3° C., 2 M",99.25%
same,"Related substances (By HPLC), Any Max. Impurity","[2]; 5 ± 3° C., 2 M",0.53%
same,"Related substances (By HPLC), Total Impurity","[2]; 5 ± 3° C., 2 M",0.76%
same,Solubility (Soluble in water),"[2]; 5 ± 3° C., 2 M",Complies
same,Water Content (By Karl Fischer-Titrator),"[2]; 5 ± 3° C., 2 M",4.55% w/w
same,"Appearance, change","[2]; 5 ± 3° C., 2nd month",No change
same,"Assessment of container closure system, change","[2]; 5 ± 3° C., 2nd month",No change
same,"Clarity of solution, change","[2]; 5 ± 3° C., 2nd month",No change
same,"Color of Solution, change","[2]; 5 ± 3° C., 2nd month",No change
same,"Color, change","[2]; 5 ± 3° C., 2nd month",No change
same,"Odor, change","[2]; 5 ± 3° C., 2nd month",No change
same,API calculated on the anhydrous basis (OAB),"[2]; 5 ± 3° C., 3 M",99.06%
same,"Related substances (By HPLC), Any Max. Impurity","[2]; 5 ± 3° C., 3 M",0.59%
same,"Related substances (By HPLC), Total Impurity","[2]; 5 ± 3° C., 3 M",0.94%
same,Solubility (Soluble in water),"[2]; 5 ± 3° C., 3 M",Complies
same,Water Content (By Karl Fischer-Titrator),"[2]; 5 ± 3° C., 3 M",4.60% w/w
same,"Appearance, change","[2]; 5 ± 3° C., 3rd month",No change
same,"Assessment of container closure system, change","[2]; 5 ± 3° C., 3rd month",No change
same,"Clarity of solution, change","[2]; 5 ± 3° C., 3rd month",No change
same,"Color of Solution, change","[2]; 5 ± 3° C., 3rd month",No change
same,"Color, change","[2]; 5 ± 3° C., 3rd month",No change
same,"Odor, change","[2]; 5 ± 3° C., 3rd month",No change
same,API calculated on the anhydrous basis (OAB),"[2]; 5 ± 3° C., 6 M",99.22%
same,"Related substances (By HPLC), Any Max. Impurity","[2]; 5 ± 3° C., 6 M",0.43%
same,"Related substances (By HPLC), Total Impurity","[2]; 5 ± 3° C., 6 M",0.78%
same,Solubility (Soluble in water),"[2]; 5 ± 3° C., 6 M",Complies
same,Water Content (By Karl Fischer-Titrator),"[2]; 5 ± 3° C., 6 M",4.62% w/w
same,"Appearance, change","[2]; 5 ± 3° C., 6th month",No change
same,"Assessment of container closure system, change","[2]; 5 ± 3° C., 6th month",No change
same,"Clarity of solution, change","[2]; 5 ± 3° C., 6th month",No change
same,"Color of Solution, change","[2]; 5 ± 3° C., 6th month",No change
same,"Color, change","[2]; 5 ± 3° C., 6th month",No change
same,"Odor, change","[2]; 5 ± 3° C., 6th month",No change
same,API calculated on the anhydrous basis (OAB),"[2]; 5 ± 3° C., Initial",99.28%
same,"Related substances (By HPLC), Any Max. Impurity","[2]; 5 ± 3° C., Initial",0.60%
same,"Related substances (By HPLC), Total Impurity","[2]; 5 ± 3° C., Initial",0.72%
same,Remark,"[2]; 5 ± 3° C., Initial",Complies
same,Solubility (Soluble in water),"[2]; 5 ± 3° C., Initial",Complies
same,Water Content (By Karl Fischer-Titrator),"[2]; 5 ± 3° C., Initial",4.66% w/w
same,stability of IS217 API,[2]; 6 months at accelerated condition 5 ± 3° C.,stable
same,stability of drug substance,"[2]; refrigerator (5 ± 3° C.) conditions for 24 months, concluded from Tables 13 to 16",stable
same,inhibition at 10 μg/mL,CYP2C9,< 20%
same,inhibition at 10 μg/mL,CYP2C19,< 20%
same,inhibition at 10 μg/mL,CYP1A2,< 20%
same,inhibition potential towards CYP1A2 as compared to others,CYP1A2,slightly higher potential
same,inhibition at 10 μg/mL,CYP3A4,< 20%
same,inhibition at 10 μg/mL,CYP2D6,< 20%
